{
  "source": "ChEMBL document CHEMBL3232869",
  "about": "“Anti-inflammatory components of Euphorbia humifusa Willd” (Bioorg Med Chem Lett, 2014)",
  "note": "Calls of active or inactive are those of the source. The rule behind the calls is not given here.",
  "data": [
    {"test_system": "RAW264.7", "assay": "Cytotoxicity against mouse RAW264.7 cells assessed as cell viability at 50 uM after 18 hrs by MTT assay in presence of LPS", "type": "cell-based", "settings": "raw264.7, 18 h", "values": [
      {"smiles": "COC/C=C/c1ccc(O[C@@H](CO)CO[C@@H]2O[C@H](CO)[C@@H](O)[C@H](O)[C@H]2O)c(OC)c1", "Activity": "Non-toxic"},
      {"smiles": "O=C(O[C@H]1[C@H](Oc2c(-c3ccc(O)cc3)oc3cc(O)cc(O)c3c2=O)O[C@H](CO)[C@@H](O)[C@@H]1O)c1cc(O)c(O)c(O)c1", "Activity": "Non-toxic"},
      {"smiles": "CC(=O)O[C@H]1[C@H](OC[C@H]2O[C@@H](Oc3ccc(O)cc3)[C@H](O)[C@@H](O)[C@@H]2O)O[C@@H](C)[C@H](OC(=O)c2ccc(O)cc2)[C@H]1O", "Activity": "Non-toxic"},
      {"smiles": "COC/C=C/c1ccc(O[C@@H]2O[C@H](CO)[C@@H](O)[C@H](O)[C@H]2O)c(OC)c1", "Activity": "Non-toxic"},
      {"smiles": "O=c1c(O)c(-c2ccc(O)c(O)c2)oc2cc(O)cc(O)c12", "note": "[QUERCETIN]", "Activity": "Non-toxic"}
    ]},
    {"test_system": "RAW264.7", "assay": "(§1) Antiinflammatory activity in mouse RAW264.7 cells assessed as inhibition of LPS-induced TNF-alpha secretion at 10 uM after 18 hrs by sandwich ELISA", "type": "functional", "settings": "not given", "values": [
      {"smiles": "COC/C=C/c1ccc(O[C@@H](CO)CO[C@@H]2O[C@H](CO)[C@@H](O)[C@H](O)[C@H]2O)c(OC)c1", "inhibition": "Active"},
      {"smiles": "CC(=O)O[C@H]1[C@H](OC[C@H]2O[C@@H](Oc3ccc(O)cc3)[C@H](O)[C@@H](O)[C@@H]2O)O[C@@H](C)[C@H](OC(=O)c2ccc(O)cc2)[C@H]1O", "inhibition": "Active"},
      {"smiles": "O=c1c(O)c(-c2ccc(O)c(O)c2)oc2cc(O)cc(O)c12", "note": "[QUERCETIN]", "inhibition": "Active"}
    ]},
    {"test_system": "RAW264.7", "assay": "as §1", "type": "functional", "settings": "RAW264.7, 18 h", "units": {"inhibition at 10 µM": "%"}, "values": [
      {"smiles": "O=C(O[C@H]1[C@H](Oc2c(-c3ccc(O)cc3)oc3cc(O)cc(O)c3c2=O)O[C@H](CO)[C@@H](O)[C@@H]1O)c1cc(O)c(O)c(O)c1", "inhibition at 10 µM": 21.5},
      {"smiles": "COC/C=C/c1ccc(O[C@@H]2O[C@H](CO)[C@@H](O)[C@H](O)[C@H]2O)c(OC)c1", "inhibition at 10 µM": 21.5}
    ]},
    {"test_system": "RAW264.7", "assay": "Antiinflammatory activity in mouse RAW264.7 cells assessed as inhibition of LPS-induced nitric oxide production after 18 hrs by griess reaction analysis", "type": "functional, cell-based", "settings": "RAW264.7, 18 h", "units": {"IC50": "µM"}, "values": [
      {"smiles": "Cc1ccc(-c2cc(C(F)(F)F)nn2-c2ccc(S(N)(=O)=O)cc2)cc1", "note": "[CELECOXIB]", "IC50": 1.84},
      {"smiles": "COC/C=C/c1ccc(O[C@@H](CO)CO[C@@H]2O[C@H](CO)[C@@H](O)[C@H](O)[C@H]2O)c(OC)c1", "IC50": 28.6},
      {"smiles": "CC(=O)O[C@H]1[C@H](OC[C@H]2O[C@@H](Oc3ccc(O)cc3)[C@H](O)[C@@H](O)[C@@H]2O)O[C@@H](C)[C@H](OC(=O)c2ccc(O)cc2)[C@H]1O", "IC50": "> 50"},
      {"smiles": "COC/C=C/c1ccc(O[C@@H]2O[C@H](CO)[C@@H](O)[C@H](O)[C@H]2O)c(OC)c1", "IC50": 19.1},
      {"smiles": "O=c1c(O)c(-c2ccc(O)c(O)c2)oc2cc(O)cc(O)c12", "note": "[QUERCETIN]", "IC50": "> 50"}
    ]},
    {"test_system": "RAW264.7", "assay": "(§2) Antiinflammatory activity in mouse RAW264.7 cells assessed as inhibition of LPS-induced nitric oxide production at 10 uM after 18 hrs by griess reaction analysis", "type": "functional", "settings": "not given", "values": [
      {"smiles": "COC/C=C/c1ccc(O[C@@H](CO)CO[C@@H]2O[C@H](CO)[C@@H](O)[C@H](O)[C@H]2O)c(OC)c1", "inhibition": "Active"},
      {"smiles": "O=C(O[C@H]1[C@H](Oc2c(-c3ccc(O)cc3)oc3cc(O)cc(O)c3c2=O)O[C@H](CO)[C@@H](O)[C@@H]1O)c1cc(O)c(O)c(O)c1", "inhibition": "inactive"},
      {"smiles": "CC(=O)O[C@H]1[C@H](OC[C@H]2O[C@@H](Oc3ccc(O)cc3)[C@H](O)[C@@H](O)[C@@H]2O)O[C@@H](C)[C@H](OC(=O)c2ccc(O)cc2)[C@H]1O", "inhibition": "inactive"},
      {"smiles": "O=c1c(O)c(-c2ccc(O)c(O)c2)oc2cc(O)cc(O)c12", "note": "[QUERCETIN]", "inhibition": "inactive"}
    ]},
    {"test_system": "RAW264.7", "assay": "as §2", "type": "functional", "settings": "RAW264.7, 18 h", "units": {"inhibition at 10 µM": "%"}, "values": [
      {"smiles": "COC/C=C/c1ccc(O[C@@H]2O[C@H](CO)[C@@H](O)[C@H](O)[C@H]2O)c(OC)c1", "inhibition at 10 µM": 32.9}
    ]},
    {"biological_target": "T1, Bifunctional epoxide hydrolase 2 (Homo sapiens) (UniProt P34913)", "T1 sequence (whole entry)": "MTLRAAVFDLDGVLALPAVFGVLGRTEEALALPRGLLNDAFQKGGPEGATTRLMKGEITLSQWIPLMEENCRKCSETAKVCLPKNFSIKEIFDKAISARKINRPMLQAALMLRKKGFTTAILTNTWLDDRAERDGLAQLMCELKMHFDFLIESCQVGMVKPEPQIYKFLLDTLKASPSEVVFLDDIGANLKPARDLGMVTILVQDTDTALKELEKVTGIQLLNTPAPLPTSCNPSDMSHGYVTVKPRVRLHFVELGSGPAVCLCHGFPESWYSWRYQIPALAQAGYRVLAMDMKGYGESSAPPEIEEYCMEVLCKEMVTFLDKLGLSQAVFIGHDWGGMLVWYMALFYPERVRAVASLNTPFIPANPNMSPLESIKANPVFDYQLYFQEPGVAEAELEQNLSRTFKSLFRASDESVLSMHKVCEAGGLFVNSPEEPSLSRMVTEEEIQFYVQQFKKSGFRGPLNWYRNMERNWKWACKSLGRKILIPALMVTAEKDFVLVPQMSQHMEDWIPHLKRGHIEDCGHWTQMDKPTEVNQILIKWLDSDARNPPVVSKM", "assay": "Inhibition of sEH (unknown origin) assessed as substrate PHOME hydrolysis at 25 uM after 1 hr by fluorescence method", "settings": "not given", "units": {"inhibition": "%"}, "values": [
      {"smiles": "COC/C=C/c1ccc(O[C@@H](CO)CO[C@@H]2O[C@H](CO)[C@@H](O)[C@H](O)[C@H]2O)c(OC)c1", "inhibition": "< 40"},
      {"smiles": "O=C(O[C@H]1[C@H](Oc2c(-c3ccc(O)cc3)oc3cc(O)cc(O)c3c2=O)O[C@H](CO)[C@@H](O)[C@@H]1O)c1cc(O)c(O)c(O)c1", "inhibition": "> 40"},
      {"smiles": "COC/C=C/c1ccc(O[C@@H]2O[C@H](CO)[C@@H](O)[C@H](O)[C@H]2O)c(OC)c1", "inhibition": "< 40"},
      {"smiles": "O=c1c(O)c(-c2ccc(O)c(O)c2)oc2cc(O)cc(O)c12", "note": "[QUERCETIN]", "inhibition": "> 40"}
    ]},
    {"biological_target": "T2, Bifunctional epoxide hydrolase 2 (Homo sapiens, UniProt P34913)", "T2 sequence (P34913 whole entry)": "T1 sequence (whole entry)", "assay": "Inhibition of sEH (unknown origin) assessed as substrate PHOME hydrolysis after 1 hr by fluorescence method", "settings": "not given", "units": {"IC50": "µM"}, "values": [
      {"smiles": "O=C(O[C@H]1[C@H](Oc2c(-c3ccc(O)cc3)oc3cc(O)cc(O)c3c2=O)O[C@H](CO)[C@@H](O)[C@@H]1O)c1cc(O)c(O)c(O)c1", "IC50": 27.4},
      {"smiles": "O=c1c(O)c(-c2ccc(O)c(O)c2)oc2cc(O)cc(O)c12", "note": "[QUERCETIN]", "IC50": 33.5}
    ]},
    {"test_system": "RAW264.7", "assay": "Antiinflammatory activity in mouse RAW264.7 cells assessed as inhibition of LPS-induced TNF-alpha secretion after 18 hrs by sandwich ELISA", "type": "functional, cell-based", "settings": "RAW264.7, 18 h", "units": {"IC50": "µM"}, "values": [
      {"smiles": "Cc1ccc(-c2cc(C(F)(F)F)nn2-c2ccc(S(N)(=O)=O)cc2)cc1", "note": "[CELECOXIB]", "IC50": 1.28},
      {"smiles": "COC/C=C/c1ccc(O[C@@H](CO)CO[C@@H]2O[C@H](CO)[C@@H](O)[C@H](O)[C@H]2O)c(OC)c1", "IC50": 27.2},
      {"smiles": "O=C(O[C@H]1[C@H](Oc2c(-c3ccc(O)cc3)oc3cc(O)cc(O)c3c2=O)O[C@H](CO)[C@@H](O)[C@@H]1O)c1cc(O)c(O)c(O)c1", "IC50": 17.2},
      {"smiles": "CC(=O)O[C@H]1[C@H](OC[C@H]2O[C@@H](Oc3ccc(O)cc3)[C@H](O)[C@@H](O)[C@@H]2O)O[C@@H](C)[C@H](OC(=O)c2ccc(O)cc2)[C@H]1O", "IC50": "> 50"},
      {"smiles": "COC/C=C/c1ccc(O[C@@H]2O[C@H](CO)[C@@H](O)[C@H](O)[C@H]2O)c(OC)c1", "IC50": 16.5}
    ]},
    {"test_system": "RAW264.7", "assay": "Antiinflammatory activity in mouse RAW264.7 cells assessed as inhibition of LPS-induced TNF-alpha secretion at 0.4 uM after 18 hrs by sandwich ELISA", "type": "functional, cell-based", "settings": "not given", "values": [
      {"smiles": "COC/C=C/c1ccc(O[C@@H](CO)CO[C@@H]2O[C@H](CO)[C@@H](O)[C@H](O)[C@H]2O)c(OC)c1", "inhibition": "inactive"},
      {"smiles": "O=C(O[C@H]1[C@H](Oc2c(-c3ccc(O)cc3)oc3cc(O)cc(O)c3c2=O)O[C@H](CO)[C@@H](O)[C@@H]1O)c1cc(O)c(O)c(O)c1", "inhibition": "inactive"},
      {"smiles": "CC(=O)O[C@H]1[C@H](OC[C@H]2O[C@@H](Oc3ccc(O)cc3)[C@H](O)[C@@H](O)[C@@H]2O)O[C@@H](C)[C@H](OC(=O)c2ccc(O)cc2)[C@H]1O", "inhibition": "inactive"},
      {"smiles": "COC/C=C/c1ccc(O[C@@H]2O[C@H](CO)[C@@H](O)[C@H](O)[C@H]2O)c(OC)c1", "inhibition": "inactive"},
      {"smiles": "O=c1c(O)c(-c2ccc(O)c(O)c2)oc2cc(O)cc(O)c12", "note": "[QUERCETIN]", "inhibition": "inactive"}
    ]},
    {"test_system": "RAW264.7", "assay": "Antiinflammatory activity in mouse RAW264.7 cells assessed as inhibition of LPS-induced nitric oxide production at 0.4 uM after 18 hrs by griess reaction analysis", "type": "functional, cell-based", "settings": "not given", "values": [
      {"smiles": "COC/C=C/c1ccc(O[C@@H](CO)CO[C@@H]2O[C@H](CO)[C@@H](O)[C@H](O)[C@H]2O)c(OC)c1", "inhibition": "inactive"},
      {"smiles": "O=C(O[C@H]1[C@H](Oc2c(-c3ccc(O)cc3)oc3cc(O)cc(O)c3c2=O)O[C@H](CO)[C@@H](O)[C@@H]1O)c1cc(O)c(O)c(O)c1", "inhibition": "inactive"},
      {"smiles": "CC(=O)O[C@H]1[C@H](OC[C@H]2O[C@@H](Oc3ccc(O)cc3)[C@H](O)[C@@H](O)[C@@H]2O)O[C@@H](C)[C@H](OC(=O)c2ccc(O)cc2)[C@H]1O", "inhibition": "inactive"},
      {"smiles": "COC/C=C/c1ccc(O[C@@H]2O[C@H](CO)[C@@H](O)[C@H](O)[C@H]2O)c(OC)c1", "inhibition": "inactive"},
      {"smiles": "O=c1c(O)c(-c2ccc(O)c(O)c2)oc2cc(O)cc(O)c12", "note": "[QUERCETIN]", "inhibition": "inactive"}
    ]}
  ]
}
